Patent US8912169B2, “Beta-lactamase inhibitors” (VenatoRx Pharmaceuticals, Inc., priority 2012, dated 2014)

Experiments:
Format in all cases: biochemical
SHV-5 = molecular target: T1, SHV-5 (Klebsiella pneumoniae, UniProt P0A3M1); assay: β-lactamase enzyme inhibition, SHV-5
T1 construct: made in house; host or cells: E. coli BL21(DE3)
Procedure: (§1) For SHV-5, Kpc-2, p99AmpC and OXA-1 β-lactamases, E. coli BL21(DE3) bacterial cells carrying expression plasmids (expressed as native untagged proteins) for the individual β-lactamases were grown in 1 L of Superbroth (Teknova Inc. Hollister, Calif.) supplemented with 100 μg/mlkanamycin selection and 1×5052 (0.5% glycerol, 0.05% glucose and 0.2% α-lactose) at 35° C. for 18-20 hours. Cells were harvested by centrifugation (4,000×g, 4° C., 20 min), resuspended in 50 ml of 10 mM HEPES pH 7.5 ( 1/20 of the initial volume). The cells were lysed by sonication (5 pulses of 45 seconds) at 45 W on ice. The lysates were clarified by centrifugation at 10,000×g for 40 minutes at 4° C. Samples were diluted 5-fold in 50 mM sodium acetate pH 5.0, stored overnight at 4° C., after which they were centrifuged at 10,000×g for 30 minutes to clarify, and filtered through 0.45 μm filters. The samples were loaded onto a 5 ml Capto S sepharose cation exchange column (GE Healthcare) pre-equilibrated with 50 mM sodium acetate pH 5.0. The column was washed with 5 column volumes of 50 mM sodium acetate pH 5.0 to wash out unbound protein and a linear gradient of NaCl (0 to 500 mM) was used to elute the protein (over 16 CV) from the column. Fractions were assayed for β-lactamase activity using Centa (Calbiochem, Gibbstown, N.J.) or Nitrocefin (EMD Millipore chemicals, Darmstadt, Germany) as a reporter β-lactamase substrate for activity in the isolated fractions. Active fractions were pooled, concentrated and further purified by gel filtration chromatography on a Superdex 75 prep grade gel filtration column (GE Healthcare, Piscataway, N.J.) pre-equilibrated in 50 mM Hepes pH 7.5, 150 mM NaCl. Active fractions were pooled concentrated, quantitated by BCA protein determination (Thermo Scientific, Rockford, Ill.), dialyzed into PBS and frozen at −80° C. in 20% glycerol until use.
(§2) An equal volume of diluted enzyme stock was added, and the plates were incubated at 37° C. for 15 min. Nitrocefin was used as substrate for p99 AmpC, VIM-2 and OXA-1 and dispensed into each well at a final concentration of 100 μM. Absorbance at 486 nm was immediately monitored for 10 min using a Biotek Powerwave XS2 microplate spectrophotometer using the GENS software package (Biotek Instruments, Winooski Vt.). In an analogous fashion, imipenem was used as substrate for Kpc-2 and Cefotaxime was used for SHV-5, while changes in absorbance upon hydrolysis of the β-lactam ring were monitored at 300 nm and 260 nm respectively in UV-transparent 96-well microtiter assay plates. Maximum rates of hydrolysis were compared to those in control wells (without inhibitors), and percentages of enzyme inhibition were calculated for each concentration of inhibitor. The concentration of inhibitor needed to reduce the initial rate of hydrolysis of substrate by 50% (IC50) was calculated as the residual activity of β-lactamase at 486 nm using GraFit version 7 kinetics software package (Erithacus Software, Surrey, UK).
(§3) Using the methodology described above, examples of the current invention were evaluated for their ability to inhibit β-lactamase enzymes from all four Ambler classifications (A through D). […] NT=Not tested.

KPC-2 = molecular target: T2, KPC-2 (Klebsiella pneumoniae, UniProt Q9F663); assay: β-lactamase enzyme inhibition, KPC-2; conditions: substrate imipenem, 300 nm; read-out: Class A KPC-2 IC50
T2 construct: made in house; host or cells: E. coli BL21(DE3)
Procedure: as §1, §2, §3

VIM-2 = molecular target: T3, VIM-2 (Escherichia coli, UniProt Q5U7L7); assay: β-lactamase enzyme inhibition, VIM-2; conditions: substrate Nitrocefin 100 μM, 486 nm; read-out: Class B VIM-2 IC50
T3 construct: made in house; host or cells: E. coli BL21(DE3)
Procedure: For Vim-2 metallo β-lactamase, the procedure was identical with the following exceptions, first the protein was not pH adjusted to pH 5 with 50 mM sodium acetate, second, the chromatography step was changed to a 5 ml Q sepharose anion exchange column pre-equilibrated with 50 mM Hepes pH 7.5, and elution of the protein was achieved by a linear gradient of NaCl (0-600 mM). Finally, the VIM-2 purification required a second run (3rd step) on the Q sepharose anion exchange column to achieve acceptable purity (>90%).
as §2, §3

p99 AmpC = molecular target: T4, p99 AmpC (Enterobacter cloacae, UniProt P05364); assay: β-lactamase enzyme inhibition, p99 AmpC
T4 construct: made in house; host or cells: E. coli BL21(DE3)
Procedure: as §1, §2, §3

OXA-1 = molecular target: T5, OXA-1 (Escherichia coli, UniProt P13661); assay: β-lactamase enzyme inhibition, OXA-1; conditions: substrate Nitrocefin 100 μM, 486 nm; read-out: Class D OXA-1 IC50
T5 construct: made in house; host or cells: E. coli BL21(DE3)
Procedure: as §1, §2, §3

With CN(C)CC(=O)NC[C@H]1CC[C@H](CC(=O)N[C@H]2Cc3cccc(C(=O)O)c3OB2O)CC1 [Example 5, (R)-3-(2-(trans-4-((2-(dimethylamino)acetamido)methyl)cyclohexyl)acetamido)-2-hydroxy-3,4-dihydro-2H-benzo[e][1,2]oxaborinine-8-carboxylic acid] the IC50 (SHV-5) was < 100 nM, the IC50 (KPC-2) was < 100 nM and the IC50 (VIM-2) was 1000 to 10000 nM. The IC50 (p99 AmpC) was < 100 nM and the IC50 (OXA-1) was < 100 nM.

For O=C(C[C@H]1CC[C@H](NCc2cccnc2)CC1)N[C@H]1Cc2cccc(C(=O)O)c2OB1O [Example 27, (R)-2-hydroxy-3-(2-(trans-4-(pyridin-3-ylmethylamino)cyclohexyl)acetamido)-3,4-dihydro-2H-benzo[e][1,2]oxaborinine-8-carboxylic acid], the IC50 (SHV-5) was < 100 nM, the IC50 (KPC-2) was < 100 nM and the IC50 (VIM-2) was 100 to 1000 nM. For the same compound, the IC50 (p99 AmpC) was < 100 nM and the IC50 (OXA-1) was < 100 nM.

With O=C(C[C@H]1CC[C@H](NCCNc2ccccn2)CC1)N[C@H]1Cc2cccc(C(=O)O)c2OB1O [Example 48, (R)-2-hydroxy-3-(2-(trans-4-(2-(pyridin-2-ylamino)ethylamino)cyclohexyl)acetamido)-3,4-dihydro-2H-benzo[e][1,2]oxaborinine-8-carboxylic acid] the IC50 (SHV-5) was < 100 nM, the IC50 (KPC-2) was < 100 nM and the IC50 (VIM-2) was 100 to 1000 nM. The IC50 (p99 AmpC) was < 100 nM and the IC50 (OXA-1) was < 100 nM.

For CN(C)[C@H]1CC[C@H](CC(=O)N[C@H]2Cc3cccc(C(=O)O)c3OB2O)CC1 [Example 14, (R)-3-(2-(trans-4-(dimethylamino)cyclohexyl)acetamido)-2-hydroxy-3,4-dihydro-2H-benzo[e][1,2]oxaborinine-8-carboxylic acid], the IC50 (SHV-5) was < 100 nM, the IC50 (KPC-2) was < 100 nM and the IC50 (VIM-2) was 100 to 1000 nM. The IC50 (p99 AmpC) was < 100 nM and the IC50 (OXA-1) was < 100 nM.

With NCCN[C@H]1CC[C@H](CC(=O)N[C@H]2Cc3cccc(C(=O)O)c3OB2O)CC1 [Example 15, (R)-3-(2-(trans-4-(2-aminoethylamino)cyclohexyl)acetamido)-2-hydroxy-3,4-dihydro-2H-benzo[e][1,2]oxaborinine-8-carboxylic acid] the IC50 (SHV-5) was < 100 nM, the IC50 (KPC-2) was < 100 nM and the IC50 (VIM-2) was < 100 nM. The IC50 (p99 AmpC) was < 100 nM and the IC50 (OXA-1) was 100 to 1000 nM.

For N[C@H](CO)CN[C@H]1CC[C@H](CC(=O)N[C@H]2Cc3cccc(C(=O)O)c3OB2O)CC1 [Example 67, (R)-3-(2-(trans-4-((S)-2-amino-3-hydroxypropylamino)cyclohexyl)acetamido)-2-hydroxy-3,4-dihydro-2H-benzo[e][1,2]oxaborinine-8-carboxylic acid], the IC50 (SHV-5) was < 100 nM, the IC50 (KPC-2) was < 100 nM and the IC50 (VIM-2) was 100 to 1000 nM. For the same compound, the IC50 (p99 AmpC) was < 100 nM and the IC50 (OXA-1) was < 100 nM.

For NCCNC(=O)NCCN(C(=O)NCCN)C1CC(CC(=O)N[C@H]2Cc3cccc(C(=O)O)c3OB2O)C1 (stereo partly drawn) [Example 57, (R)-3-(2-(3-(3-(2-aminoethyl)-1-(2-(3-(2-aminoethyl)ureido)ethyl)ureido)cyclobutyl)acetamido)-2-hydroxy-3,4-dihydro-2H-benzo[e][1,2]oxaborinine-8-carboxylic acid], the IC50 (SHV-5) was < 100 nM, the IC50 (KPC-2) was < 100 nM and the IC50 (VIM-2) was 100 to 1000 nM. The IC50 (p99 AmpC) was < 100 nM and the IC50 (OXA-1) was < 100 nM.

With O=C(CC1CCCCC1)N[C@H]1Cc2cccc(C(=O)O)c2OB1O [Example 31, (R)-3-(2-cyclohexylacetamido)-2-hydroxy-3,4-dihydro-2H-benzo[e][1,2]oxaborinine-8-carboxylic acid] the IC50 (SHV-5) was < 100 nM, the IC50 (KPC-2) was < 100 nM and the IC50 (VIM-2) was 1000 to 10000 nM. The IC50 (p99 AmpC) was < 100 nM and the IC50 (OXA-1) was < 100 nM.

With O=C(C[C@H]1CC[C@H](NCCN(CC2CC2)CC2CC2)CC1)N[C@H]1Cc2cccc(C(=O)O)c2OB1O [Example 75, (R)-3-(2-(trans-4-(2-(bis(cyclopropylmethyl)amino)ethylamino)cyclohexyl)acetamido)-2-hydroxy-3,4-dihydro-2H-benzo[e][1,2]oxaborinine-8-carboxylic acid] the IC50 (SHV-5) was < 100 nM, the IC50 (KPC-2) was < 100 nM and the IC50 (VIM-2) was < 100 nM. For the same compound, the IC50 (p99 AmpC) was < 100 nM and the IC50 (OXA-1) was < 100 nM.

In the case of N[C@H]1CC[C@@H](CC(=O)N[C@H]2Cc3cccc(C(=O)O)c3OB2O)CC1 [Example 7, (R)-3-(2-(cis-4-aminocyclohexyl)acetamido)-2-hydroxy-3,4-dihydro-2H-benzo[e][1,2]oxaborinine-8-carboxylic acid], the IC50 (SHV-5) is reported as < 100 nM, the IC50 (KPC-2) is reported as < 100 nM and the IC50 (VIM-2) is reported as 1000 to 10000 nM. For the same compound, the IC50 (p99 AmpC) was < 100 nM and the IC50 (OXA-1) was 100 to 1000 nM.

NCC(=O)N[C@H]1CC[C@H](CC(=O)N[C@H]2Cc3cccc(C(=O)O)c3OB2O)CC1 [Example 68, (R)-3-(2-(trans-4-(2-aminoacetamido)cyclohexyl)acetamido)-2-hydroxy-3,4-dihydro-2H-benzo[e][1,2]oxaborinine-8-carboxylic acid] was tested, and the IC50 (SHV-5) was < 100 nM, the IC50 (KPC-2) was < 100 nM and the IC50 (VIM-2) was 100 to 1000 nM. For the same compound, the IC50 (p99 AmpC) was < 100 nM and the IC50 (OXA-1) was < 100 nM.

NC[C@H]1CC[C@H](C(=O)N[C@H]2Cc3cccc(C(=O)O)c3OB2O)CC1 [Example 1, (R)-3-(trans-4-(aminomethyl)cyclohexanecarboxamido)-2-hydroxy-3,4-dihydro-2H-benzo[e][1,2]oxaborinine-8-carboxylic acid] was tested, and the IC50 (SHV-5) was 1000 to 10000 nM, the IC50 (KPC-2) was 100 to 1000 nM and the IC50 (VIM-2) was 100 to 1000 nM. The IC50 (p99 AmpC) was < 100 nM and the IC50 (OXA-1) was < 100 nM.

With CSCCN[C@H]1CC[C@H](CC(=O)N[C@H]2Cc3cccc(C(=O)O)c3OB2O)CC1 [Example 66, (R)-2-hydroxy-3-(2-(trans-4-(2-(methylthio)ethylamino)cyclohexyl)acetamido)-3,4-dihydro-2H-benzo[e][1,2]oxaborinine-8-carboxylic acid] the IC50 (SHV-5) was < 100 nM, the IC50 (KPC-2) was < 100 nM and the IC50 (VIM-2) was 1000 to 10000 nM. For the same compound, the IC50 (p99 AmpC) was < 100 nM and the IC50 (OXA-1) was < 100 nM.

With N[C@H]1CC[C@H](CC(=O)N[C@H]2Cc3cccc(C(=O)O)c3OB2O)CC1 [Example 6, (R)-3-(2-(trans-4-aminocyclohexyl)acetamido)-2-hydroxy-3,4-dihydro-2H-benzo[e][1,2]oxaborinine-8-carboxylic acid] the IC50 (SHV-5) was < 100 nM, the IC50 (KPC-2) was < 100 nM and the IC50 (VIM-2) was 100 to 1000 nM. For the same compound, the IC50 (p99 AmpC) was < 100 nM and the IC50 (OXA-1) was < 100 nM.

With NC[C@H]1CC[C@H](CC(=O)N[C@H]2Cc3cccc(C(=O)O)c3OB2O)CC1 [Example 3] the IC50 (SHV-5) was < 100 nM, the IC50 (KPC-2) was 100 to 1000 nM and the IC50 (VIM-2) was 1000 to 10000 nM. For the same compound, the IC50 (p99 AmpC) was < 100 nM and the IC50 (OXA-1) was < 100 nM.

NCCC(N)[C@H]1CC[C@H](CC(=O)N[C@H]2Cc3cccc(C(=O)O)c3OB2O)CC1 (stereo partly drawn) [Example 76, (R)-3-(2-(trans-4-(1,3-diaminopropyl)cyclohexyl)acetamido)-2-hydroxy-3,4-dihydro-2H-benzo[e][1,2]oxaborinine-8-carboxylic acid] was tested, and the IC50 (SHV-5) was < 100 nM, the IC50 (KPC-2) was < 100 nM and the IC50 (VIM-2) was < 100 nM. The IC50 (p99 AmpC) was < 100 nM and the IC50 (OXA-1) was < 100 nM.

In the case of NCCNC(=O)NC1CC(CC(=O)N[C@H]2Cc3cccc(C(=O)O)c3OB2O)C1 (stereo partly drawn) [Example 58, (R)-3-(2-(3-(3-(2-aminoethyl)ureido)cyclobutyl)acetamido)-2-hydroxy-3,4-dihydro-2H-benzo[e][1,2]oxaborinine-8-carboxylic acid], the IC50 (SHV-5) is reported as < 100 nM, the IC50 (KPC-2) is reported as < 100 nM and the IC50 (VIM-2) is reported as 100 to 1000 nM. The IC50 (p99 AmpC) was < 100 nM and the IC50 (OXA-1) was < 100 nM.
